Earlier results on 1 substance are cited in article PMC5809414, “Physician-initiated clinical study of limb ulcers treated with a functional peptide, SR-0379: from discovery to a randomized, double-blind, placebo-controlled trial” (NPJ Aging and Mechanisms of Disease, 2018).

Where two headings read alike, the source gives them in different places.

The subject of the series is venous leg ulcers. As to conditions: cited from earlier work. The source says: Recently, another anti-microbial peptide, LL-37, was similarly evaluated for venous leg ulcers.[26] The study design consisted of a 4-week randomized double-blind t ...

As to LL-37, the healing rate constants result is, setting by setting: (0.5 mg/mL LL-37, 4-week treatment, p = 0.003 vs placebo) “higher than those for placebo”; (1.6 mg/mL LL-37, 4-week treatment, p = 0.088 vs placebo) “higher than those for placebo”.
